Values of other authors, collected in patent publication US10188593B2, “Polysaccharide delivery particle” (Spray-Tek, Inc., priority 2016, dated 2019).

conditions: perfume oil ingredients

SMILES	Octanol/water Partition Coefficient (logP)
CCOC(=O)C(C)CC (centres unmarked) [Ethyl_2-methylbutyrate]	1.91
CCOc1cc(C=O)ccc1O [Ethyl_vanillin]	1.53
CC(=O)OCCC(C)CCC=C(C)C (centres unmarked) [Citronellyl_acetate]	3.7
CC(C)=CCCC(C)CCO (single isomer, unassigned; (-)) [(−)-Citronellol]	2.76
C=CC(C)CCCC(C)(C)O (centres unmarked) [Dihydromyrcenol]	3.08
C=CC(C)(O)CCC=C(C)C (centres unmarked) [Linalool]	2.44
CCCCCCOC(C)=O [Hexyl_acetate]	2.64
CC(=O)/C=C/C1=C(C)CCCC1(C)C [beta-Ionone]	4.02
CCCCCCCCCCCC#N [Lauronitrile]	4.84
C=C(C)[C@H]1CC=C(C)CC1 [d-Limonene]	4.38
CC(C)c1cccc(C(C)CC=O)c1 (centres unmarked) [Florhydral]	3.59
CC=Cc1ccc(O)c(OC)c1 [Isoeugenol]	1.85
CCC=C(C)C(O)CCCCC (centres unmarked) [Undecavertol]	3.06
C=CCOC(=O)COCCC(C)C [Allyl_amyl_glycolate]	2.81
